# Test results published in PMC11062922 (Nature Chemical Biology, 2023).
# Several values for one entry are separate records, joined by “and”; a condition that tells them apart may be missing. Equal values may be shown once. Read-outs that look alike come from different tables or passages of the source.
# Legend:
# PIK3CG = target: T1, PIK3CG (Homo sapiens, UniProt P48736); experiment: Kinobeads two-dose competition binding: PIK3CG; settings: sheet "Kinobeads Drugmatrix-nanomolar2" (compounds in rows); read-out: Kinobeads Drugmatrix-nanomolar2: apparent Kd, PIK3CG
# T1 construct: endogenous in cells
# Excerpt: Supplement 41589_2023_1459_MOESM3_ESM.xlsx, sheet "Kinobeads Drugmatrix-nanomolar2" | column: PIK3CG
# PRKCQ = target: T2, PRKCQ (Homo sapiens, UniProt Q04759); experiment: Kinobeads full dose-response competition binding: PRKCQ; settings: Gene Name PRKCQ
# T2 construct: to maximize the representation of endogenous proteins; endogenous in cells
# PKN2 = target: T3, PKN2 (Homo sapiens, UniProt Q16513); experiment: Kinobeads full dose-response competition binding: PKN2; settings: Gene Name PKN2
# T3 construct: a mixture of lysates from five cancer cell lines; endogenous in cells
# FRK = target: T4, FRK (Homo sapiens, UniProt P42685); experiment: Kinobeads two-dose competition binding: FRK; settings: read-out: Lestaurtinib Drugmatrix value, Gene Name FRK; target FRK; each column = one Lestaurtinib control replicate (batch_R1-R3)
# T4 construct: endogenous in cells
# PIP4K2C = target: T5, PIP4K2C (Homo sapiens, UniProt Q8TBX8); experiment: Kinobeads competition binding, Lestaurtinib control replicates: PIP4K2C; settings: read-out: Lestaurtinib Drugmatrix value; Gene Name PIP4K2C; one column per experiment number and replicate (R1-R3)
# T5 construct: a mixture of lysates from five cancer cell lines; endogenous in cells
# T5 sequence (Q8TBX8 1-421): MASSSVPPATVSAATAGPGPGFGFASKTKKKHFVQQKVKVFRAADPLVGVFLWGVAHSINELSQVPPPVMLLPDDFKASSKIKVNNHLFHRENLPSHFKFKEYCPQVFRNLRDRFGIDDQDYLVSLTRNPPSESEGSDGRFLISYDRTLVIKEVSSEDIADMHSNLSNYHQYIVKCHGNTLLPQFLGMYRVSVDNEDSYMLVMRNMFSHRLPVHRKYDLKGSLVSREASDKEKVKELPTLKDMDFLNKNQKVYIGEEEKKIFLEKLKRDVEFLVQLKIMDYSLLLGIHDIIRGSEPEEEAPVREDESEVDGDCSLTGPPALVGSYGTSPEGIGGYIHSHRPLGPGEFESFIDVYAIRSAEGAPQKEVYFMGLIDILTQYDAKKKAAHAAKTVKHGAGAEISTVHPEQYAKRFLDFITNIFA
# PHKG2 = target: T6, PHKG2 (Homo sapiens, UniProt P15735); experiment: Kinobeads competition binding, Lestaurtinib control replicates: PHKG2; settings: read-out: Lestaurtinib Drugmatrix value; Gene Name PHKG2; one column per experiment number and replicate (R1-R3)
# T6 construct: a mixture of lysates from five cancer cell lines; endogenous in cells
# T6 sequence (P15735 1-406): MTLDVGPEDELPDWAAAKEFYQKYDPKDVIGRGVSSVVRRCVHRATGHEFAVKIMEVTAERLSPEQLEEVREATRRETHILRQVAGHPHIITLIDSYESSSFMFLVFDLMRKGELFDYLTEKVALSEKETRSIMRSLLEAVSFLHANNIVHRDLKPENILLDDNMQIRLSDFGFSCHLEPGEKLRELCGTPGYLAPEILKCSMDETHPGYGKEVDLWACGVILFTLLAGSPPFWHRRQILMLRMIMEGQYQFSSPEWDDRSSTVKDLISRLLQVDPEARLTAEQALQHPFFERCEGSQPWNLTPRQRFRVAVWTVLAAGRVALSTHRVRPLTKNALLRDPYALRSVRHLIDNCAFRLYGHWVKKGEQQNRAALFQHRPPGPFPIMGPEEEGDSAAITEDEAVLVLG
# FLT4 = target: T7, FLT4 (Homo sapiens, UniProt P35916); experiment: Kinobeads two-dose competition binding: FLT4; settings: read-out: Lestaurtinib Drugmatrix value, Gene Name FLT4
# T7 construct: endogenous in cells
# PIM3 = target: T8, PIM3 (Homo sapiens, UniProt Q86V86); experiment: Kinobeads competition binding, Lestaurtinib control replicates: PIM3
# T8 construct: a mixture of lysates from five cancer cell lines; endogenous in cells
# PRKACG = target: T9, PRKACG (Homo sapiens, UniProt P22612); experiment: Kinobeads competition binding, Lestaurtinib control replicates: PRKACG; settings: read-out: Lestaurtinib Drugmatrix value; Gene Name PRKACG; one column per experiment number and replicate (R1-R3)
# T9 construct: endogenous in cells
# FYN = target: T10, FYN (Homo sapiens, UniProt P06241); experiment: Kinobeads two-dose competition binding: FYN; settings: read-out: Lestaurtinib Drugmatrix value, Gene Name FYN; target FYN; each column = one Lestaurtinib control replicate (batch_R1-R3)
# T10 construct: endogenous in cells
# HSP90B1 = target: T11, HSP90B1 (Homo sapiens, UniProt P14625); experiment: Kinobeads two-dose competition binding: HSP90B1; settings: read-out: Lestaurtinib Drugmatrix value, Gene Name HSP90B1
# T11 construct: endogenous in cells
# AURKB = target: T12, AURKB (Homo sapiens, UniProt Q96GD4); experiment: Kinobeads two-dose competition binding: AURKB; settings: read-out: Lestaurtinib Drugmatrix value, Gene Name AURKB
# T12 construct: endogenous in cells
# SPR = target: T13, SPR (Homo sapiens, UniProt P35270); experiment: Kinobeads full dose-response competition binding: SPR; settings: Gene Name SPR
# T13 construct: endogenous in cells
# [1] = EC50 with Correction, doses in nM, read-out: apparent Kd
# [2] = eight-dose curve fit, doses in nM
# T2 sequence (Q04759 whole entry): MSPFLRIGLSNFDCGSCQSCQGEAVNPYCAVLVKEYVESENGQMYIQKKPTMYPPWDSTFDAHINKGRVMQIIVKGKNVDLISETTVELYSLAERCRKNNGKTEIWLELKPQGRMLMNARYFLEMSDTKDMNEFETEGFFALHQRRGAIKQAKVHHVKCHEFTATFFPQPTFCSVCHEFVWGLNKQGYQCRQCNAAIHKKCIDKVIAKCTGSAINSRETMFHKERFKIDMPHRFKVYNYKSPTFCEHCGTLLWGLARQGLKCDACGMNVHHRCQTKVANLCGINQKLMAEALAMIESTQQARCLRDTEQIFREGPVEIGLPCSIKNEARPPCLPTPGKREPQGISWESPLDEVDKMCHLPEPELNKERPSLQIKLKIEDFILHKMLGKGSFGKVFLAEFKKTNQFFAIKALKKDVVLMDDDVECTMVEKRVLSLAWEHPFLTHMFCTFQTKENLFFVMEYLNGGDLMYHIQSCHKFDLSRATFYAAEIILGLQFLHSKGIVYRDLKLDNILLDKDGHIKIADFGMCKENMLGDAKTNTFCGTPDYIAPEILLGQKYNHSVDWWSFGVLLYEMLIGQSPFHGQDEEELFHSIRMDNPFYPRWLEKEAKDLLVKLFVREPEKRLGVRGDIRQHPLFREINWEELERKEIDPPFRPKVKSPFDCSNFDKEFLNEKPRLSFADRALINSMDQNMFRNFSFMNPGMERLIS
# T3 sequence (Q16513 whole entry): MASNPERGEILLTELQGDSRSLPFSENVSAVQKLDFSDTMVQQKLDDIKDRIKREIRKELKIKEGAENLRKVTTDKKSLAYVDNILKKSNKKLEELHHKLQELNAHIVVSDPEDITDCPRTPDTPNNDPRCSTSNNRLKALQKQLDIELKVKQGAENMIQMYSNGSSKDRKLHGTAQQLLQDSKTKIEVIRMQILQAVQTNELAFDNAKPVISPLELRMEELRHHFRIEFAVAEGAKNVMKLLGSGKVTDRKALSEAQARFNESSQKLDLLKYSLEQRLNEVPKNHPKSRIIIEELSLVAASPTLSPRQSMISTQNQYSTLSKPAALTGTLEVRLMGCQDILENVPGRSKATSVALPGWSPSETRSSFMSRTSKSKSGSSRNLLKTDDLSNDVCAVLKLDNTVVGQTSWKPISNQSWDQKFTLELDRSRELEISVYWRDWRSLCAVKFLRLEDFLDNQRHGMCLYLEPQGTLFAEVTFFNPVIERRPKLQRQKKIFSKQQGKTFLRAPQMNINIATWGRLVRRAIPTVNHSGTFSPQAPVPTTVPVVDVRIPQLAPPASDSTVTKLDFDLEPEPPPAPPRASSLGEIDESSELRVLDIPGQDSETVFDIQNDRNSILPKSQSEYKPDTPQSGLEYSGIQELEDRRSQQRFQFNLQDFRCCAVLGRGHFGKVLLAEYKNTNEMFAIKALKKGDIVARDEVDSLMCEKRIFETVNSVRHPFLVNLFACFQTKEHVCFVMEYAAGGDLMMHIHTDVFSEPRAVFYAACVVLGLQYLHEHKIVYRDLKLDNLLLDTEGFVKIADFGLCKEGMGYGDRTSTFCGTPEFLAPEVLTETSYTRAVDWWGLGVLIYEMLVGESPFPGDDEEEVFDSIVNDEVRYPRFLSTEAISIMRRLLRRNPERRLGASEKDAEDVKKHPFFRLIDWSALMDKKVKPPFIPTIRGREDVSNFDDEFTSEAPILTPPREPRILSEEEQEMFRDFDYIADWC
# T13 sequence (P35270 whole entry): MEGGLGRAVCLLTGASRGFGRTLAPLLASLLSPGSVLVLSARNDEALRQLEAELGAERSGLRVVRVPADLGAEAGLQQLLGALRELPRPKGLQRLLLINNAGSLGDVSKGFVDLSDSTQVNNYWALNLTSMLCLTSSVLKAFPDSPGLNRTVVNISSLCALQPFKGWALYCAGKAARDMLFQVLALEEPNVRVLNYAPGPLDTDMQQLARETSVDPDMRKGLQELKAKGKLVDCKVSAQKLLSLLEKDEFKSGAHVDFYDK
# T12 sequence (Q96GD4 whole entry): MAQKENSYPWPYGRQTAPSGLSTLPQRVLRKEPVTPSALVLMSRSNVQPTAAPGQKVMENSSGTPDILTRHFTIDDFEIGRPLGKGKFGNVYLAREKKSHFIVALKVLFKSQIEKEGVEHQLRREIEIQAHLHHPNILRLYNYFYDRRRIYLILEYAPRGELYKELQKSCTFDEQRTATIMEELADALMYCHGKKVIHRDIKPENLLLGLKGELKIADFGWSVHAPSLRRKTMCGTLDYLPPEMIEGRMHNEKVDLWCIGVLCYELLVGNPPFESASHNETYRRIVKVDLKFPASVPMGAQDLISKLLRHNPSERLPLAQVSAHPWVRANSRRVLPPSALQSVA
# T4 sequence (P42685 whole entry): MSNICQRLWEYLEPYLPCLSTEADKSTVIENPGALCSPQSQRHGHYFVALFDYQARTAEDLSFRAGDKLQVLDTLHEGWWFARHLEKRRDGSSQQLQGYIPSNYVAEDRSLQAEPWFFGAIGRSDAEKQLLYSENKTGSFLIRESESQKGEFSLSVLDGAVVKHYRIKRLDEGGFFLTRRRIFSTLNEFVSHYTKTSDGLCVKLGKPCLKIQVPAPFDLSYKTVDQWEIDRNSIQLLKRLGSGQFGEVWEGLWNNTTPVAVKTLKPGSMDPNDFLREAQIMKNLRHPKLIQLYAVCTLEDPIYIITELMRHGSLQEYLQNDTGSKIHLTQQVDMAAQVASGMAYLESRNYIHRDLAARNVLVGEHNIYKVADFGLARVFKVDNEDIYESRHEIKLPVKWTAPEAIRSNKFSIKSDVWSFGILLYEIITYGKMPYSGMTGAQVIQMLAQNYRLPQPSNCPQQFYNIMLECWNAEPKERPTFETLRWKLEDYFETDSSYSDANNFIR
# T10 sequence (P06241 whole entry): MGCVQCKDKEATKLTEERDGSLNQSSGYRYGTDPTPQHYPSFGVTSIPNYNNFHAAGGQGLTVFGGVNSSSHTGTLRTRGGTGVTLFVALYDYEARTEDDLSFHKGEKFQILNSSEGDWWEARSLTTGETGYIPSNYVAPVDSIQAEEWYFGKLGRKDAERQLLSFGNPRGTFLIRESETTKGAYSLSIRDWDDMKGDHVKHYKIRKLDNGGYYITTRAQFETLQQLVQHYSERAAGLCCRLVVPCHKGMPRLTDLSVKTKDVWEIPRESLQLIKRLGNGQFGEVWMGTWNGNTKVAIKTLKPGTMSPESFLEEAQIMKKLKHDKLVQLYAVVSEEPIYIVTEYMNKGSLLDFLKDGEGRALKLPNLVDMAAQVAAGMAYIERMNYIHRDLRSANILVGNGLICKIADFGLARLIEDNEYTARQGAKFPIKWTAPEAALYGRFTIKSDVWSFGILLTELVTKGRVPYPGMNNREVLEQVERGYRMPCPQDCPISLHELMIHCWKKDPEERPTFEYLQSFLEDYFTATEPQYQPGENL
# T9 sequence (P22612 whole entry): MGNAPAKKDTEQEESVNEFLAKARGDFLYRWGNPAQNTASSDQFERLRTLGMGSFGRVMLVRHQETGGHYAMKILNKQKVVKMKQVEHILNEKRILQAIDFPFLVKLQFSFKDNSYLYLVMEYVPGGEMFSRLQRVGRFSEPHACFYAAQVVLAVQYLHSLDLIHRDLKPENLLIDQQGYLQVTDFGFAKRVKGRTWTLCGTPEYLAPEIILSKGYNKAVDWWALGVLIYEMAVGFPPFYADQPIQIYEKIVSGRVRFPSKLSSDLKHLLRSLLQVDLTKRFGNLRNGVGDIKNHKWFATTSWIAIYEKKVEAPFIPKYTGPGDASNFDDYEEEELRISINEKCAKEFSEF
# T11 sequence (P14625 22-803): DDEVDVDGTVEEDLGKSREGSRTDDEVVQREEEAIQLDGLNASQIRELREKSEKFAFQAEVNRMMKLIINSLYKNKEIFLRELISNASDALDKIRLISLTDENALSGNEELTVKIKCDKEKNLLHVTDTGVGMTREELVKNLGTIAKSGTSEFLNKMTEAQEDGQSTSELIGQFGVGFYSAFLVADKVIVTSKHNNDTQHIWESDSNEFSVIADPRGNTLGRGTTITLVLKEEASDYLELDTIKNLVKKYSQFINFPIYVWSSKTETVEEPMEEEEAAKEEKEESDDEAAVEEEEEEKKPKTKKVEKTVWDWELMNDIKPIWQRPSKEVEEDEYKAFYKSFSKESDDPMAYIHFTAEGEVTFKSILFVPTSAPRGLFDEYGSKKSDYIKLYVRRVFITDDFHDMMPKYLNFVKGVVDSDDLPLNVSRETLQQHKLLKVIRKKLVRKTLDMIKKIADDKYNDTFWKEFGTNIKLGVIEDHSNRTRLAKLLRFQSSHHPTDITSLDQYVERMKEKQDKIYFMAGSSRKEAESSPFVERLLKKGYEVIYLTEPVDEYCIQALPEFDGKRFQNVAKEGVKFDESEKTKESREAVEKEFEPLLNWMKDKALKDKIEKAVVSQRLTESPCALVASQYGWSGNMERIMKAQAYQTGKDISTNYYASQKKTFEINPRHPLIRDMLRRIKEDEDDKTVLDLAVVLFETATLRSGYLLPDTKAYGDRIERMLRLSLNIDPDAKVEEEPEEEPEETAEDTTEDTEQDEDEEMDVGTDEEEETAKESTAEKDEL
smiles,measurement,setting,value
CC(C)N1CC(=O)N(C)c2cnc(Nc3cccc(S(=O)(=O)CCN4CCOCC4)c3)nc21 [BI00009348],potency estimated from few doses,PIK3CG,109 nM
CCn1c(-c2nonc2N)nc2c(C#CC(C)(C)O)nc(OCCN)cc21 [GSK902056A],Relative Intensity 0.3nM,"PRKCQ; 0.3nM compound, DMSO = 1",0.9348
same,Relative Intensity 1nM,"PRKCQ; 1nM compound, DMSO = 1",1.037
same,Relative Intensity 3nM,"PRKCQ; 3nM compound, DMSO = 1",0.9215
same,Relative Intensity 10nM,"PRKCQ; 10nM compound, DMSO = 1",0.8429
same,Relative Intensity 30nM,"PRKCQ; 30nM compound, DMSO = 1",0.5346
same,Relative Intensity 100nM,"PRKCQ; 100nM compound, DMSO = 1",0.4204
same,Relative Intensity 300nM,"PRKCQ; 300nM compound, DMSO = 1",0
same,Relative Intensity 1000nM,"PRKCQ; 1000nM compound, DMSO = 1",0
same,Kd,PRKCQ; [1],58.7 nM
same,EC50,PRKCQ; [2],58.7 nM
same,Relative Intensity 0.3nM,"PKN2; 0.3nM compound, DMSO = 1",0.9769
same,Relative Intensity 1nM,"PKN2; 1nM compound, DMSO = 1",1.016
same,Relative Intensity 3nM,"PKN2; 3nM compound, DMSO = 1",1.0433
same,Relative Intensity 10nM,"PKN2; 10nM compound, DMSO = 1",1.014
same,Relative Intensity 30nM,"PKN2; 30nM compound, DMSO = 1",0.9503
same,Relative Intensity 100nM,"PKN2; 100nM compound, DMSO = 1",0.8449
same,Relative Intensity 300nM,"PKN2; 300nM compound, DMSO = 1",0.6334
same,Relative Intensity 1000nM,"PKN2; 1000nM compound, DMSO = 1",0.3485
same,Kd,PKN2; [1],401 nM
same,EC50,PKN2; [2],401 nM
C[C@]12O[C@H](C[C@]1(O)CO)n1c3ccccc3c3c4c(c5c6ccccc6n2c5c31)CNC4=O [Lestaurtinib],potency estimated from few doses,FRK,751 nM
same,potency estimated from few doses,PIP4K2C,86.5 nM
same,potency estimated from few doses,PHKG2,321 nM
same,potency estimated from few doses,FLT4,396 nM
same,potency estimated from few doses,"PIM3; read-out: Lestaurtinib Drugmatrix value, PIM3, Gene Name PIM3; one column per experiment number and replicate (R1-R3)",611 nM
same,potency estimated from few doses,"PIM3; read-out: Lestaurtinib Drugmatrix value, PIM3; Gene Name PIM3; one column per experiment number and replicate (R1-R3)",656 nM and 795 nM
same,potency estimated from few doses,PRKACG,769 nM
same,potency estimated from few doses,FYN,817 nM
same,potency estimated from few doses,HSP90B1,979 nM
same,potency estimated from few doses,AURKB,146 nM
NCc1ccc(-c2nc(-c3ccncc3)c(-c3ccc(Cl)c(O)c3)[nH]2)cc1 [SB-476429-A],Relative Intensity 0.3nM,"SPR; 0.3nM compound, DMSO = 1",0.9627
same,Relative Intensity 1nM,"SPR; 1nM compound, DMSO = 1",0.9101
same,Relative Intensity 3nM,"SPR; 3nM compound, DMSO = 1",0.8696
same,Relative Intensity 10nM,"SPR; 10nM compound, DMSO = 1",0.7693
same,Relative Intensity 30nM,"SPR; 30nM compound, DMSO = 1",0.5216
same,Relative Intensity 100nM,"SPR; 100nM compound, DMSO = 1",0.1442
same,Relative Intensity 300nM,"SPR; 300nM compound, DMSO = 1",0.02935
same,Relative Intensity 1000nM,"SPR; 1000nM compound, DMSO = 1",0.01082
same,Kd,SPR; [1],32.8 nM
same,EC50,SPR; [2],32.8 nM
